In publication PMC9959096, “Selective α3β4 Nicotinic Acetylcholine Receptor Ligand as a Potential Tracer for Drug Addiction” (International Journal of Molecular Sciences, 2023):
Read-outs that look alike come from different tables or passages of the source.

Legend:
[1] = molecular target: T1, human α7 nAChR (Homo sapiens, UniProt P36544); assay: Radioligand displacement binding assay, membranes of SH-SY5Y cells stably transfected with human α7 nAChR; conditions: for Selectivity Ratios α4β2/α7: ratio of Ki values
T1 construct: expressed in transfected cells

[2] = molecular target: T2, human α4β2 nAChR (Homo sapiens, UniProt P17787+P43681); assay: Competitive radioligand displacement binding assay, membranes of HEK293 cells stably transfected with human α4β2 nAChR
T2 construct: expressed in transfected cells

[3] = molecular target: T3, human α3β4 nAChR (Homo sapiens, UniProt P30926+P32297); assay: Competitive radioligand displacement binding assay, membranes of HEK293 cells stably transfected with human α3β4 nAChR; conditions: for Selectivity Ratios α4β2/α3β4 / Selectivity Ratios α7/α3β4: ratio of Ki values; for Selectivity Ratios α7/α3β4: given as fold
T3 construct: expressed in transfected cells

[4] = molecular target: T1, human α7 nAChR; parameters: method as in PMID 27774124; conditions: lead compounds, ratio of Ki values; cited from earlier work
[5] = molecular target: T3, human α3β4 nAChR; conditions: cited from earlier work; for Selectivity Ratios α4β2/α3β4 / Selectivity Ratios α7/α3β4: lead compounds, ratio of Ki values
[6] = SH-SY5Y membranes, [3H]methyllycaconitine ~0.5 nM per table footnote, mean of two independent experiments, single values in brackets, read-out: Binding Affinity Ki α7

SMILES	Ki [1]	Selectivity Ratios α4β2/α7 [1]	Ki [2]	Ki [3]	Selectivity Ratios α4β2/α3β4 [3]	Selectivity Ratios α7/α3β4 [3]	melting point	Ki [1, 6]	Selectivity Ratios α4β2/α7 [4]	Selectivity Ratios α4β2/α3β4 [5]	Selectivity Ratios α7/α3β4 [5]	Ki ([5]; selective α3β4 nAChR ligands)
Fc1cc(-c2cn([C@@H]3CN4CCC3CC4)nn2)ccc1OCc1ccccc1 [AK3, (1R,3S,4R)-3-(4-(4-(Benzyloxy)-3-fluorophenyl)-1H-1,2,3-triazol-1-yl)quinuclidine]	9760 nM	0.02	180 nM	3.18 nM	56.6	3069	173 to 175 °C	–	–	–	–	–
Fc1cc(-c2cn([C@H]3CN4CCC3CC4)nn2)ccc1OCc1ccccc1 [AK4, (1S,3R,4S)-3-(4-(4-(Benzyloxy)-3-fluorophenyl)-1H-1,2,3-triazol-1-yl)quinuclidine]	–	77.9	4180 nM	112 nM	37.3	0.48	180 to 181 °C	53.6 nM	–	–	–	–
Oc1ccc(-c2cn([C@H]3CN4CCC3CC4)nn2)cc1F [AK2, 2-Fluoro-4-(1-((1S,3R,4S)-quinuclidin-3-yl)-1H-1,2,3-triazol-4-yl)phenol]	–	1331	5980 nM	601 nM	9.95	0.01	275 °C (dec.)	4.49 nM	–	–	–	–
Oc1ccc(-c2cn([C@@H]3CN4CCC3CC4)nn2)cc1 [(S)-QND8]	–	–	–	–	–	–	–	–	15.7	186	11.8	–
Oc1ccc(-c2cn([C@@H]3CN4CCC3CC4)nn2)cc1F [AK1, 2-Fluoro-4-(1-((1R,3S,4R)-quinuclidin-3-yl)-1H-1,2,3-triazol-4-yl)phenol]	–	18.9	504 nM	2.28 nM	221	11.7	258 °C (dec.)	26.7 nM	–	–	–	–
Fc1ccc(-c2cn([C@@H]3CN4CCC3CC4)nn2)cc1 [(S)-T1]	–	–	–	–	–	–	–	–	–	–	–	< 10 nM
Fc1cccc(-c2cn([C@@H]3CN4CCC3CC4)nn2)c1 [(S)-T2]	–	–	–	–	–	–	–	–	0.79	231	294	–
